Assay results taken from ChEMBL document CHEMBL2331252, “Facile one-pot synthesis of novel dispirooxindole-pyrrolidine derivatives and their antimicrobial and anticancer activity against A549 human lung adenocarcinoma cancer cell line” (Bioorg Med Chem Lett, 2013).
Converted amounts (≈) assume the structure as drawn. The source made the active and inactive calls. No cut-off for these calls is given here.

Tests used:
Klebsiella aerogenes [1] = assay: Antibacterial activity against Enterobacter aerogenes MTCC 111 at 1 mg/disc after 24 hrs by disc diffusion method; type: functional
A549 [2] = assay: Cytotoxicity against human A549 cells assessed as cell death at 100 ug/ml by MTT assay; type: functional
Staphylococcus aureus [3] = assay: Antibacterial activity against Staphylococcus aureus MTCC 96 after 24 hrs; type: functional; settings: MTCC 96, 24 h
Klebsiella aerogenes [4] = assay: Antibacterial activity against Enterobacter aerogenes MTCC 111 after 24 hrs; type: functional
Proteus vulgaris [5] = assay: Antibacterial activity against Proteus vulgaris MTCC 1771 after 24 hrs; type: functional; settings: MTCC 1771, 24 h
Shigella flexneri [6] = assay: Antibacterial activity against Shigella flexneri MTCC 1457 after 24 hrs; type: functional; settings: MTCC 1457, 24 h
Staphylococcus aureus [7] = assay: Antibacterial activity against methicillin-resistant Staphylococcus aureus after 24 hrs; type: functional
Proteus vulgaris [8] = assay: Antibacterial activity against Proteus vulgaris MTCC 1771 at 1 mg/disc after 24 hrs by disc diffusion method; type: functional
Staphylococcus aureus [9] = assay: Antibacterial activity against methicillin-resistant Staphylococcus aureus at 1 mg/disc after 24 hrs by disc diffusion method; type: functional
Staphylococcus aureus [10] = assay: Antibacterial activity against Staphylococcus aureus MTCC 96 at 1 mg/disc after 24 hrs by disc diffusion method; type: functional
A549 [11] = assay: Cytotoxicity against human A549 cells assessed as cell death by MTT assay; type: functional, cell-based
Micrococcus luteus [12] = assay: Antibacterial activity against Micrococcus luteus MTCC 106 at 1 mg/disc after 24 hrs by disc diffusion method; type: functional
Candida albicans [13] = assay: Antifungal activity against Candida albicans MTCC 227 after 48 to 72 hrs; type: functional
Klebsiella pneumoniae [14] = assay: Antibacterial activity against Klebsiella pneumoniae MTCC 109 after 24 hrs; type: functional; settings: MTCC 109, 24 h
Micrococcus luteus [15] = assay: Antibacterial activity against Micrococcus luteus MTCC 106 after 24 hrs; type: functional
Salmonella typhimurium [16] = assay: Antibacterial activity against Salmonella typhimurium MTCC 1251 after 24 hrs; type: functional, Salmonella enterica subsp. enterica serovar Typhimurium; settings: Salmonella enterica, MTCC 1251, 24 h
Candida albicans [17] = assay: Antifungal activity against Candida albicans MTCC 227 at 1 mg/disc after 48 hrs by disc diffusion method; type: functional
Klebsiella pneumoniae [18] = assay: Antibacterial activity against Klebsiella pneumoniae MTCC 109 at 1 mg/disc after 24 hrs by disc diffusion method; type: functional
Salmonella typhimurium [19] = assay: Antibacterial activity against Salmonella typhimurium MTCC 1251 at 1 mg/disc after 24 hrs by disc diffusion method; type: functional, Salmonella enterica subsp. enterica serovar Typhimurium
A549 [20] = assay: Cytotoxicity against human A549 cells assessed as cell death at 200 ug/ml by MTT assay; type: functional
A549 [21] = assay: Cytotoxicity against human A549 cells assessed as cell death at 50 ug/ml by MTT assay; type: functional
Shigella flexneri [22] = assay: Antibacterial activity against Shigella flexneri MTCC 1457 at 1 mg/disc after 24 hrs by disc diffusion method; type: functional
[23] = Antifungal activity against Malassezia pachydermatis at 1 mg/disc after 48 hrs by disc diffusion method; type: functional

For C#CCN1C(=O)[C@@]2(c3ccccc31)N(C)C[C@](C#N)(C(=O)c1c[nH]c3ccccc13)[C@]21C(=O)Nc2ccccc21, the inhibition (Klebsiella aerogenes [1]) was “inactive”, the Activity (A549 [2]) was 59.31% and the MIC (Staphylococcus aureus [3]) was 125 µg/mL (≈ 238 µM). The MIC (Klebsiella aerogenes [4]) was “inactive”, the MIC (Proteus vulgaris [5]) was 500 µg/mL (≈ 951 µM) and the MIC (Shigella flexneri [6]) was 500 µg/mL (≈ 951 µM). For the same molecule, the MIC (Staphylococcus aureus [7]) was 500 µg/mL (≈ 951 µM), the “inhibition zone (IZ)” value (Proteus vulgaris [8]) was 10 mm and the “inhibition zone (IZ)” value (Staphylococcus aureus [9]) was 8 mm. The “inhibition zone (IZ)” value (Staphylococcus aureus [10]) was 12 mm, the IC50 (A549 [11]) was 50 µg/mL (≈ 95.1 µM) and the inhibition (Micrococcus luteus [12]) was “inactive”. For the same molecule, the MIC (Candida albicans [13]) was “inactive”, the MIC (Klebsiella pneumoniae [14]) was 62.5 µg/mL (≈ 119 µM) and the MIC (Micrococcus luteus [15]) was “inactive”. The MIC (Salmonella typhimurium [16]) was 500 µg/mL (≈ 951 µM), the inhibition (Candida albicans [17]) was “inactive” and the “inhibition zone (IZ)” value (Klebsiella pneumoniae [18]) was 14 mm. The “inhibition zone (IZ)” value (Salmonella typhimurium [19]) was 9 mm, the Activity (A549 [20]) was 67.67% and the Activity (A549 [21]) was 55.22%. The “inhibition zone (IZ)” value (Shigella flexneri [22]) was 8 mm and the inhibition [23] was “inactive”.
